Series [1] has as its system Rattus norvegicus. Kind of series: Antiinflammatory activity was evaluated by contund edema after 3 hr at 200 mg/kg concentration administered perorally. The series is classed as functional. As to conditions: route oral.
For series [2], the system named is Rattus norvegicus. As to the kind of experiment: Antiinflammatory activity by carrageenan-induced rat paw edema assay after 3 hr at 100 mg/kg concentration administered perorally. The series is classed as functional. The following applies: route oral. For orientation: Carrageenan injected into the paw causes an acute inflammation.
The subject of series [3] is Mus musculus. Kind of series: Compound was evaluated for analgesia at 100 mg/kg when administered perorally (- = positive mice</=1). The series is classed as functional. The following applies: route oral.
Series [4] in a line: Compound was evaluated for lethal dose in mice when administarted intraperitoneally. The series is classed as toxicity, organism-based. As to conditions: mouse, in vivo, ip.
In series [5] the test system is Rattus norvegicus. As to the kind of experiment: Antiinflammatory activity was evaluated by carrageenan-induced rat paw edema assay after 3 hr at 100 mg/kg concentration administered perorally. The series is classed as functional. The following applies: route oral.
For series [6], the system named is Rattus norvegicus. Kind of series: Compound was tested for inhibition of scald edema when administered perorally. The following applies: po. The series is classed as functional.
The subject of series [7] is Rattus norvegicus. As to the kind of experiment: Compound was tested for inhibition of contund edema when administered perorally. The series is classed as functional. The following applies: po.
The next series deals with T1, Cyclooxygenase (Rattus norvegicus, UniProt P35355+Q63921).
T1 sequence (P35355 whole entry): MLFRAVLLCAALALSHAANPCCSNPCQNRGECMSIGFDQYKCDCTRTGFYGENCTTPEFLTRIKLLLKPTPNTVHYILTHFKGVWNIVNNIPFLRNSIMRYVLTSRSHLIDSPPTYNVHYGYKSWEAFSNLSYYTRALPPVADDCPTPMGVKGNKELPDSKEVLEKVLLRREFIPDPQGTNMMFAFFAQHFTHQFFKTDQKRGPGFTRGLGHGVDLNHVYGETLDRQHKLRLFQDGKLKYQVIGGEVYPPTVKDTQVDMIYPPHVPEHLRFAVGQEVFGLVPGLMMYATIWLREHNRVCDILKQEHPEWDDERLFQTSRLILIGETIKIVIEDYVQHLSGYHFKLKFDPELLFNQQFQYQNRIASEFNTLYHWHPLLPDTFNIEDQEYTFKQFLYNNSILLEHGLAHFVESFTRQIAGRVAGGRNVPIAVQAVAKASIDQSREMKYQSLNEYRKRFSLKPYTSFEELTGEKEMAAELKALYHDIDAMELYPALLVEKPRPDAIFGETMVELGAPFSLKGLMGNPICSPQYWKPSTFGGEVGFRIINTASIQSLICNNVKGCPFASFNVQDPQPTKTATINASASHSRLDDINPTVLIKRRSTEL
T1 sequence (Q63921 whole entry): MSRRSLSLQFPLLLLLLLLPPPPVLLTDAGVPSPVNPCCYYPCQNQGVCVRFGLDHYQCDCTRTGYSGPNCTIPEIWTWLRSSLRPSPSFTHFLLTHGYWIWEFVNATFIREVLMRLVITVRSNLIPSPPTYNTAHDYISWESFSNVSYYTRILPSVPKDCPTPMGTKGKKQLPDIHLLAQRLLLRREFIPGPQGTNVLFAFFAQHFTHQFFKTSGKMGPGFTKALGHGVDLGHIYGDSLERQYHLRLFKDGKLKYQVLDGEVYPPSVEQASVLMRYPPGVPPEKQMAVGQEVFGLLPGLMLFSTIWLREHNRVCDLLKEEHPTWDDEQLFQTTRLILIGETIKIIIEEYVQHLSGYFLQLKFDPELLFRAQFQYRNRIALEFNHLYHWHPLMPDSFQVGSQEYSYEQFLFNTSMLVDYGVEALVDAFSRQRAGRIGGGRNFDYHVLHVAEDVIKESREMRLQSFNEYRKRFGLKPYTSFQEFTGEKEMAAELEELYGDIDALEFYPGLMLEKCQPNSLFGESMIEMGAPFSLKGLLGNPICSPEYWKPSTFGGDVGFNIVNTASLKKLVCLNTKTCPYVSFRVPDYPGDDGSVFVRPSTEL
Kind of series: Compound was tested for inhibition of prostaglandin synthetase […]. The series is classed as protein assay.

The test system of series [8] is Rattus norvegicus. Kind of series: Compound was tested for inhibition of carrageenan induced edema when administered perorally. The series is classed as functional. The following applies: po.
For series [9], the system named is Rattus norvegicus. As to the kind of experiment: Compound was tested for analgesia by Acetic acid writhing method when administered perorally. The series is classed as functional. The following applies: po. (Writhing tests count abdominal constrictions after an irritant is injected.)
In series [10] the test system is Rattus norvegicus. Kind of series: Compound was tested for anti-pyrexia (Yeast-induced pyrexia) when administered perorally. The following applies: po. Type of series: functional.
The test system of series [11] is Rattus norvegicus. Kind of series: Compound was tested for ulcerogenicity when administered perorally. The series is classed as functional.
Series [12] can be described thus: Compound was tested for acute toxicity when administered intraperitoneally in mice. Type of series: organism-based. The following applies: mouse, in vivo, ip.
Series [13] concerns Mus musculus. As to the kind of experiment: Compound was evaluated for analgesia at 100 mg/kg when administered perorally (+ = positive mice >/=2). Type of series: functional. The following applies: route oral.
Series [14] deals with Mus musculus. As to the kind of experiment: Compound was evaluated for analgesia at 100 mg/kg when administered perorally (+ = positive mice >/= 2). As to conditions: route oral. The series is classed as functional.
Series [15] relates to Mus musculus. Kind of series: Compound was evaluated for analgesic activity at 100 mg/kg when administered perorally (- = positive mice</= 1). Type of series: functional. The following applies: route oral.
In series [16] the test system is Rattus norvegicus. Kind of series: Antiinflammatory activity was evaluated by contund edema assay after 3 hr at 200 mg/kg concentration administered perorally. The series is classed as functional. As to conditions: route oral.
Series [17] has as its system Rattus norvegicus. As to the kind of experiment: Antiinflammatory activity was evaluated by carrageenan-induced rat paw edema assay after 3 hr at 100 mg/kg concentration administered perorally (=p</=0.01). Type of series: functional. The following applies: route oral.
In series [18] the test system is Rattus norvegicus. Kind of series: Antiinflammatory activity was evaluated by carrageenan-induced rat paw edema assay after 3 hr at 100 mg/kg concentration administered perorally (=p< 0.05). Type of series: functional. As to conditions: route oral.
Series [19] has as its system Rattus norvegicus. As to the kind of experiment: Compound was tested for inhibition of contund edema when administered perorally. As to conditions: po.
The test system of series [20] is Mus musculus. Kind of series: Compound was tested for acute toxicity when administered perorally. Type of series: functional. The following applies: po.
In series [21] the test system is Rattus norvegicus. Kind of series: Compound was tested for anti-pyrexia when administered perorally. The following applies: po. The series is classed as functional.
For series [22], the system named is Rattus norvegicus. Kind of series: Compound was tested for analgesia when administered perorally. The series is classed as functional. The following applies: po.

As a reminder, the inhibition in vivo is the change of the read-out against control, counted positive when it falls. The term LD50 denotes the dose at which mortality reaches 50%. A lower LD50 goes with greater toxicity. As a reminder, the IC50 is the concentration at which inhibition is half-maximal. For orientation: ED50 means the dose at which the effect has come halfway, by size or by number of responders.

For `CCc1cccc(-c2nc3cc(OC)ccc3[nH]2)n1`, in the series with Rattus norvegicus [1], the inhibition in vivo at 200 mg/kg worked out at 87%. In addition, the inhibition in vivo at 100 mg/kg in the series on Rattus norvegicus [2] is 52%. This compound also had an Activity in the series with Mus musculus [3] of 1. Moreover, the LD50 in series [4] is over 300 mg/kg.
With `CCc1cccc(-c2nc3ccccc3[nH]2)n1`, in the series on Rattus norvegicus [5], the inhibition in vivo at 100 mg/kg was 41%. In addition, the inhibition in vivo at 200 mg/kg in the series with Rattus norvegicus [1] came to 85%. In series [4], this compound returned an LD50 of over 300 mg/kg.
`CCc1ccc(-c2nc3ccccc3[nH]2)nc1`: in the series on Rattus norvegicus [5], the inhibition in vivo at 100 mg/kg stood at 44%. In addition, the inhibition in vivo at 200 mg/kg in the series on Rattus norvegicus [1] was found to be 81%. The ED40 in the series on Rattus norvegicus [6] amounted to 110 mg/kg; in the series with Rattus norvegicus [7] it was 142 mg/kg; with Rattus norvegicus [8], 70 mg/kg. The IC50 against Cyclooxygenase came to 0.000076 M. Moreover, it took a dose of 140 mg/kg to reach the 50% effect level in the series on Rattus norvegicus [9] (ED50). In addition, the ED60 in the series with Rattus norvegicus [10] came to 68 mg/kg. This compound had a UD50 in the series with Rattus norvegicus [11] of 200 mg/kg. The LD50 in series [12] and in [4] was 1230 mg/kg in each case. In addition, in the series on Mus musculus [13], the Activity is listed as 2.
Consider `Cc1cccc(-c2nc3cc(Cl)ccc3[nH]2)n1`, for which the inhibition in vivo at 200 mg/kg with Rattus norvegicus [1] came to 95%. In addition, the inhibition in vivo at 100 mg/kg in the series with Rattus norvegicus [2] worked out at 39%. Moreover, in the series on Mus musculus [3], the Activity worked out at 1. In series [4], the LD50 stood at 1230 mg/kg.
For the compound `Cc1cccnc1-c1nc2ccccc2[nH]1`, the inhibition in vivo at 100 mg/kg with Rattus norvegicus [5] came to 17%.
In the case of `COc1ccc2[nH]c(-c3cccc(C)n3)nc2c1`, the inhibition in vivo at 200 mg/kg in the series with Rattus norvegicus [1] came to 39%. The inhibition in vivo at 100 mg/kg in the series on Rattus norvegicus [2] is 40%. Also, the Activity with Mus musculus [3] was 1. The same compound yielded an LD50 in series [4] of 3730 mg/kg.
`COc1cccc(-c2nc3ccccc3[nH]2)n1`: the inhibition in vivo at 100 mg/kg with Rattus norvegicus [5] stood at 47%. In addition, the LD50 in [4] is over 300 mg/kg. Also, in the series with Mus musculus [14], the Activity result is reported as “>=2”.
`Cc1ccc2[nH]c(-c3cccc(C)n3)nc2c1`: the inhibition in vivo at 200 mg/kg in the series with Rattus norvegicus [1] was found to be 67%. Besides, the inhibition in vivo at 100 mg/kg in the series with Rattus norvegicus [2] came to 42%. Besides, the Activity with Mus musculus [3] is 1. This compound came in with an LD50 in [4] of 812 mg/kg.
With `Cc1cccc(-c2nc3ccccc3[nH]2)n1`, the inhibition in vivo at 100 mg/kg in the series on Rattus norvegicus [5] was found to be 44%. This compound also yielded an Activity with Mus musculus [15] of 1. This compound gave an LD50 in series [4] of 3250 mg/kg. Besides, in the series on Rattus norvegicus [16], the inhibition in vivo at 200 mg/kg came to 59%.
With `CCc1ccc(-c2nc3cc(OC)ccc3[nH]2)nc1`, the inhibition in vivo at 100 mg/kg with Rattus norvegicus [17] was 58%. This compound also gave an Activity in the series with Mus musculus [3] of 1. Further, the 50% lethal dose (LD50) in [4] was over 300 mg/kg.
For `CCc1ccc(-c2nc3cc(C)ccc3[nH]2)nc1`, the inhibition in vivo at 100 mg/kg with Rattus norvegicus [18] worked out at 35%.
As to `Cc1ccnc(-c2nc3ccccc3[nH]2)c1`, the inhibition in vivo at 100 mg/kg in the series on Rattus norvegicus [5] was -4%.
For `CCCCC1C(=O)N(c2ccccc2)N(c2ccccc2)C1=O` [PHENYLBUTAZONE], the ED40 is 200 mg/kg in the series with Rattus norvegicus [19], 180 mg/kg in the series on Rattus norvegicus [6] and 100 mg/kg in the series with Rattus norvegicus [8]. Also, in the series on Mus musculus [20], the LD50 was determined as 616 mg/kg. On Cyclooxygenase, this compound returned an IC50 of 0.000015 M. This compound also had an ED60 in the series with Rattus norvegicus [21] of 44 mg/kg. In addition, in the series on Rattus norvegicus [2], the inhibition in vivo at 100 mg/kg is 43%. The compound also gave a UD50 in the series on Rattus norvegicus [11] of 142 mg/kg. This compound also displayed a 50% effective dose (ED50) in the series on Rattus norvegicus [22] of 280 mg/kg.
For `Cl.O=C(Cn1c(=O)sc2ccc(Cl)cc21)N1CCN(CCO)CC1` [TIARAMIDE HYDROCHLORIDE], the ED40 in the series on Rattus norvegicus [19] came to 200 mg/kg; in the series with Rattus norvegicus [6], 200 mg/kg; in the series with Rattus norvegicus [8], 160 mg/kg. In addition, the LD50 with Mus musculus [20] stood at 203 mg/kg. This compound also gave an IC50 against Cyclooxygenase of over 0.0001 M. The same compound gave an ED60 in the series with Rattus norvegicus [21] of 100 mg/kg. In the series with Rattus norvegicus [2], the inhibition in vivo at 100 mg/kg was 31%. Also, in the series on Rattus norvegicus [11], the UD50 amounted to 163 mg/kg. In addition, the ED50 with Rattus norvegicus [22] was determined as 76 mg/kg.

The record behind these values is ChEMBL document CHEMBL1121470, “Synthesis and antiinflammatory activity of some 2-(substituted-pyridinyl)benzimidazoles” (J Med Chem, 1980).
